# Measured values: patent EP1007549B1, “COMPOSITIONS AND METHODS FOR HIGHLY EFFICIENT TRANSFECTION” (Innovata Plc, priority 1997, dated 2006)
# Columns and labels:
# [1] = test system: human dendritic cells; assay: Transfection of human dendritic cells with pEGFP-N1, count of fluorescent positive cells; assay type: cell-based
# [2] = Photon correlation spectroscopy (PCS) particle size of K6CL22-DNA complexes; assay type: physicochemical; conditions: 150mM NaCl, one hour at room temperature, DNA 40 µg/ml
# Description: Complexes between K6CL22 and DNA were formed in the following way in a laminar flow hood: A stock solution of K6CL22 (typically 8-12mg/ml) was stored in water at -20°C. This was thawed and diluted to 4-400µg/ml in either 10mM HEPES pH7.4 (Hepes) or 10mM HEPES/150mM NaCl pH 7.4 (HBS). (It should be noted that these non-reducing conditions favor the formation of peptide dimers via disulfide bonding between peptides of cysteine residues in the peptide). A stock solution of pCMVβ plasmid DNA (typically 2-4mg/ml in either water or TE buffer) was diluted to 40 µg/ml in Hepes or HBS. Peptide (typically 0.4-1ml) was added to an equal volume of diluted DNA. Different target ratios of Peptide:DNA were achieved by varying the concentration of added peptide. Samples were immediately mixed by gently sucking up and down in a pipette tip and left to incubate at room temperature for a minimum of one hour or if required overnight at 4°C.
# In Fig. 1, peptide and DNA were mixed as described above and incubated over night at 4°C. The final DNA concentration was 40µg/ml. […]
# For PCS analysis the buffers used in the preparation of samples were filtered through 20nm filters. […] Samples were allowed to equilibrate to 25°C prior to measuring, and an average Zav was determined from a minimum of three measurements. […] Zav and intensity and volume distributions were determined using Malvern PC S software. […]
# [3] = test system: Cos7 cells; assay: Transfection of Cos cells with pCMVβ, Galacto-Light β-galactosidase assay; assay type: cell-based, monkey; conditions: chloroquine, 5 hours, triplicate
# Description: The DNA and complex solutions were made as follows: • DNA solution: 100 µg/ml pCMVβ, 25 mM phosphate pH 7.4, 0.6 M NaCl. Complex solution: 100 µg/ml pCMVβ, 25 mM phosphate pH 7.4, 0.6 M NaCl, 200 µg/ml K6CL22. These solutions were incubated at room temperature for 1 hour and then 4°C overnight. Cos cells were seeded at 1×10^5 cells per well in 6 well plates (in DMEM, 10% Fetal calf serum (FCS)) 24 hours before incubation with complex or DNA.
# The DNA and complex solutions were diluted into PEG diluent (10% PEG 8000, 25 mM phosphate pH 7.4, 37.5 mM NaCl) to a final DNA concentration of 20 µg/ml. Just prior to transfection the Cos cells were washed with PBS and 875 µl RATQ medium (RAT medium with 137.14 µM chloroquine) was added per well. 125 µl of diluted complex or DNA solution was then added per well and the cells were incubated at 37°C for 5 hours. […] 100 µl of Reaction buffer is added to each tube, the samples are incubated at room temperature for 60 mins and then analyzed using Light Emission Accelerator and a Barthoid lumat LB 9501 luminometer. The protein concentration of the cleared cell lysate was measured using the Bio-Rad DC protein assay kit (Bio-Rad). The results are then expressed as relative light units per mg of protein (Figure 7). […]
# [4] = test system: KLN 205 cells; assay: Transfection of KLN 205 cells, luminescence and X-gal; assay type: cell-based, mouse; conditions: for % expressing cells / average light units: 120 µM chloroquine, 2 µg DNA/well; for average light units: charge ratio +2
# [5] = test system: KLN 205 cells; assay: Uptake of YOYO-1 labelled DNA complexes by KLN 205 cells (FACScan); assay type: cell-based, mouse
# Description: KLN 205 cells were plated at a density of 1.5×10^5 cells per well in 6 well plates one day prior to the addition of DNA. Plasmid DNA (pCMVgal) was labeled with the fluorescent dye: YOYO-1 (Molecular Probes, Eugene, OR) at a ratio of 1 dye molecule per 100 bp (i.e. 1.5 µl of a 10 µM YOYO-1 solution per µg of DNA). The DNA was diluted to 40 µg/ml with 10 mM HEPES, pH 7.3. […] The transfection complex solution was left for 1 hour at room temperature before it was applied to the cells in EMEM/120 µM chloroquine with or without FCS at a DNA concentration of 2 µg/well (i.e. 100 µl of complex added to 900 µl medium for one well). After 4 hours of incubation at 37°C the cells were washed twice with PBS and harvested with Trypsin/EDTA. The cell associated fluorescence was analyzed using a FACScan (Becton Dickinson).
# [6] = test system: HepG2 cells; assay: Transfection of HepG2 cells in the presence of serum; assay type: cell-based; conditions: 10% FCS, optimum charge ratio for each peptide, pCMVβ
# Description: These transfection complexes were then tested for their comparative ability to transfect HepG2 cells in the presence of 10% FCS (Figure 32).
structure (smiles),measurement,setting,value
CC[C@H](C)[C@H](NC(=O)[C@H](CC(N)=O)NC(=O)[C@H](CS)NC(=O)[C@H](CCSC)NC(=O)[C@H](CCCNC(=N)N)NC(=O)[C@H](CCC(=O)O)NC(=O)[C@H](Cc1ccc(O)cc1)NC(=O)[C@H](C)NC(=O)[C@H](CO)NC(=O)[C@H](CCCNC(=N)N)NC(=O)[C@@H](NC(=O)[C@H](CCCCN)NC(=O)[C@H](CCCNC(=N)N)NC(=O)CNC(=O)[C@H](CC(N)=O)NC(=O)[C@H](CCC(=O)O)NC(=O)CNC(=O)[C@H](CCCNC(=N)N)NC(=O)[C@H](Cc1c[nH]c2ccccc12)NC(=O)[C@H](Cc1ccccc1)NC(=O)CNC(=O)[C@H](CC(C)C)NC(=O)[C@H](Cc1ccccc1)NC(=O)CNC(=O)CNC(=O)[C@H](CCCCN)NC(=O)[C@H](CCCCN)NC(=O)[C@H](CCCCN)NC(=O)[C@H](CCCCN)NC(=O)[C@H](CCCCN)NC(=O)[C@@H](N)CCCCN)[C@@H](C)O)C(=O)N[C@@H](CC(C)C)C(=O)N[C@@H](CCCCN)C(=O)NCC(=O)N[C@@H](CCCCN)C(=O)O [K6CL22 monomer],"transfection of dendritic cells, monomer versus dimer",[1]; peptide/DNA ratio between 2.0 and 4.0,transfects dendritic cells poorly compared with CL22 dimer
same,effect of FCS on transfection efficiency,[1]; presence of FCS compared to absence of FCS,greatly reduced
CC[C@H](C)[C@H](NC(=O)[C@H](CC(N)=O)NC(=O)[C@H](CS)NC(=O)[C@H](CCSC)NC(=O)[C@H](CCCNC(=N)N)NC(=O)[C@H](CCC(=O)O)NC(=O)[C@H](Cc1ccc(O)cc1)NC(=O)[C@H](C)NC(=O)[C@H](CO)NC(=O)[C@H](CCCNC(=N)N)NC(=O)[C@@H](NC(=O)[C@H](CCCCN)NC(=O)[C@H](CCCNC(=N)N)NC(=O)CNC(=O)[C@H](CC(N)=O)NC(=O)[C@H](CCC(=O)O)NC(=O)CNC(=O)[C@H](CCCNC(=N)N)NC(=O)[C@H](Cc1c[nH]c2ccccc12)NC(=O)[C@H](Cc1ccccc1)NC(=O)CNC(=O)[C@H](CC(C)C)NC(=O)[C@H](Cc1ccccc1)NC(=O)CNC(=O)CNC(=O)[C@H](CCCCN)NC(=O)[C@H](CCCCN)NC(=O)[C@H](CCCCN)NC(=O)[C@H](CCCCN)NC(=O)[C@H](CCCCN)NC(=O)[C@H](CCCCN)NC(=O)[C@H](CCCCN)NC(=O)[C@H](CCCCN)NC(=O)[C@H](CCCCN)NC(=O)[C@H](CCCCN)NC(=O)[C@H](CCCCN)NC(=O)[C@@H](N)CCCCN)[C@@H](C)O)C(=O)N[C@@H](CC(C)C)C(=O)N[C@@H](CCCCN)C(=O)NCC(=O)N[C@@H](CCCCN)C(=O)O [CL26],"transfection efficiency, CL26-complexed versus CL22-complexed DNA","[1]; Figure 35, peptide/DNA ratio between 1 and 1.8",higher efficiency
same,"transfection efficiency, CL26-complexed versus CL22-complexed DNA",[1]; Figures 33 and 34,higher efficiency
CC[C@H](C)[C@H](NC(=O)[C@H](CC(N)=O)NC(=O)[C@H](CS)NC(=O)[C@H](CCSC)NC(=O)[C@H](CCCNC(=N)N)NC(=O)[C@H](CCC(=O)O)NC(=O)[C@H](Cc1ccc(O)cc1)NC(=O)[C@H](C)NC(=O)[C@H](CO)NC(=O)[C@H](CCCNC(=N)N)NC(=O)[C@@H](NC(=O)[C@H](CCCCN)NC(=O)[C@H](CCCNC(=N)N)NC(=O)CNC(=O)[C@H](CC(N)=O)NC(=O)[C@H](CCC(=O)O)NC(=O)CNC(=O)[C@H](CCCNC(=N)N)NC(=O)[C@H](Cc1c[nH]c2ccccc12)NC(=O)[C@H](Cc1ccccc1)NC(=O)CNC(=O)[C@H](CC(C)C)NC(=O)[C@H](Cc1ccccc1)NC(=O)CNC(=O)CNC(=O)[C@H](CCCCN)NC(=O)[C@H](CCCCN)NC(=O)[C@H](CCCCN)NC(=O)[C@H](CCCCN)NC(=O)[C@H](CCCCN)NC(=O)[C@@H](N)CCCCN)[C@@H](C)O)C(=O)N[C@@H](CC(C)C)C(=O)N[C@@H](CCCCN)C(=O)NCC(=O)N[C@@H](CCCCN)C(=O)O [K6CL22],size of large particles/aggregates of complex,[2],approx. 1000 nm
same,"transfection of Cos cells (β-galactosidase, relative light units per mg of protein)",[3],very efficient transfection
same,"transfection efficiency, CL22-complexed versus CL26-complexed DNA","[1]; Figure 35, peptide/DNA ratio between 2 and 2.6",greater
same,gene expression compared to NBC32 complexed plasmid DNA,[4],higher
same,% expressing cells,[4]; absence of FCS,35%
same,average light units,[4]; absence of FCS,3000 x 10^6 RLU
same,% expressing cells,[4]; presence of FCS,5%
same,average light units,[4]; presence of FCS,77 x 10^6 RLU
same,uptake of complexed DNA compared to DNA complexed with a polylysine peptide,"[5]; charge ratio +2, 120 µM chloroquine, 4 hours",taken up as efficiently
same,"uptake of complexed DNA compared to a polylysine peptide, presence of FCS",[5]; in the presence of FCS,less than that of a polylysine peptide
same,transfection compared with polylysine peptides or a histone based peptide,[6],greater
